Patent US9969753B2, “BCR-ABL diploid inhibitor, synthesizing method therefor, and uses thereof” (CHENGDU UNIVERSITY, priority 2014, dated 2018)

Tests used:
c-Abl tyrosine kinase = c-Abl tyrosine kinase (Homo sapiens, UniProt P00519); test: Mobility Shift Assay, inhibition of kinase Abl in vitro; type: biochemical; conditions: 10 concentrations 100 μM to 0.005 μM
Method: (§1) Using the method of mobility Shift Assay, detect activity of the compound BGC with kinase Abl in vitro. The concentration of BGC was diluted from 100 μM with 100% DMSO to 0.005 μM using 3 times dilution method, 10 concentrations in total for detection (2 duplicate) with staurosporine as standard control, set solvent control (10% DMSO) and negative control (EDTA).
(§2) Detect activity of different concentrations of the compound BGC on 384 holes reaction plate by enzyme-linked immune response on the inhibition of the kinase Abl, read the conversion rate data on Caliper, and convert the conversion rate to inhibition rate. Percent inhibition=(max−conversion)/(max−min)*100
Wherein, max is the conversion rate of DMSO control; min refers to the conversion rate of enzyme-free control.
According to inhibition rate of the concentrations, calculate the half inhibitory concentration IC50 of the compound BGC to tyrosine kinase Abl.
as §1, with “Mobility” for “mobility”, “BP” for “BGC”
as §2, with “BP” for “BGC”
Wherein, max is the conversion rate of DMSO control, min refers to the conversion rate of enzyme-free control.
According to inhibition rate of the concentrations, calculate the half inhibitory concentration IC50 of the compound BP to tyrosine kinase c-Abl. […]
Detect activity of different concentrations of the compound BDB on 384 holes reaction plate by enzyme-linked immune response on the inhibition of the kinase Abl, read the conversion rate data on Caliper, and convert the conversion rate to inhibition rate. […]

[1] = Preliminary pharmacokinetic study, single intravenous dosage; type: in vivo, female C57BL/6(Es-1^c) nude mice; conditions: female, C57BL/6(Es-1^c) nude, mouse, whole blood; intravenous 1 mg/kg, mice, non-compartmental model
Method: Experiment methods and procedures are as follows: female C57BL/6(Es-1^c) nude mice, weight 18-25 g, age 6-8 weeks, other, 3 female C57BL/6(Es-1^c) nude mice for blank samples, prepare for the standard curve for analysis. Intravenous dosage 1 mg/kg, delivery volume 5 mL/kg. Intravenous injection drug solution: DMSO:Solutol HS15:Saline=5:5:90, v/v/v. […] Female C57BL/6(Es-1^c) nude mice after intravenous injection dosage collect about 20 μL bloods from the mouse tail vein at 0.25 h, 2 h, 8 h and 24 h, use K2EDTA anticoagulant. Use steamed water to dilute the blood sample in accordance with volume in 3 times and store the diluted blood sample at −70° C. for analysis.
Data analysis: use WinNonlin (version 6.2) software, based on non-compartmental model to calculate the pharmacokinetic parameters.
Experiment methods and procedures are as follows: female C57BL/6(Es-1^c) nude mice, weight 18-25 g, age 6-8 weeks, other, 3 female C57BL/6(Es-1^c) nude mice for blank samples, prepare for the standard curve for analysis. Intravenous dosage 1 mg/kg, delivery volume 5 mL/kg. Intravenous injection drug solution: DMSO:Solutol HS15:Saline=5:5:90, v/v/v. […] Female C57BL/6(Es-1^c) nude mice after intravenous injection dosage collect about 20 μL blood from the mouse tail vein at 0.25h, 2h, 8h and 24 h, use K2EDTA anticoagulant. Use steamed water to dilute the blood sample in accordance with volume in 3 times and store the diluted blood sample at −70° C. for analysis.
Experiment methods and procedures are as follows: female C57BL/6(Es-1^c) nude mice, weight 18-25 g, age 6-8 weeks, other, 3 female C57BL/6(Es-1^c) nude mice for blank samples, prepare for the standard curve for analysis. Intravenous dosage 1 mg/kg, delivery volume 5 mL/kg.

[2] = test system: KBM5 (human wild type Bcr-Abl) cells; test: KBM5 tumor growth inhibition test in vitro (ATP method); type: cell-based; conditions: 72 hours incubation, read-out: IC50, cytotoxicity to KBM5 cells
Method: (§3) Using ATP method to determine the cell toxicity of compound BGC of the present invention. Adjust the KBM5 cells to a suitable cell density. 140 ul cell suspensions inoculated each hole on 96-well plate. The vaccination density of each species cell is: 2000-6000; then the cell culture plate is placed in the incubator for 24 hours so that it is attached on the wall holes. Using 3 times dilution method to prepare the solution of BGC compound with different concentrations, and add them into the correspond holes on 96-well plate with vaccination in advance, 10 μL of each hole, and its final concentrations are as follows: 100 μM, 33.3 μM, 11.1 μM, 3.70 μM, 1.23 μM, 0.41 μM, 0.14 μM, 0.046 μM, 0.015 μM. Duplicate 3 times of each concentration. After 72 hours incubation in 37° C. incubator, detect the cell proliferation of each hole with ATP method, and calculate the drug concentration to median lethal concentration IC50 of KBM5 cells.
as §3, with “BP” for “BGC”, “KBM5 and KBM5R” for “KBM5”, “method” for “method,”
Using ATP method to determine the cell toxicity of compound BDB of the present invention. Adjust the KBM5 and KBM5R cells to a suitable cell density. 140 ul cell suspensions inoculated each hole on 96-well plate. […]

[3] = test system: KBM5 (Bcr-Abl positive) cell subcutaneous implanted tumor; test: Leukemia subcutaneous xenograft growth inhibition test, KBM5; type: in vivo, C57BL/6(Es-1^c) nude mice; conditions: dosed once a day for two weeks, tumor volume; for inhibitory effect compared with Imatinib in KBM5 subcutaneous tumor model: positive control 160 mg/Kg Imatinib
Text: According to the test results of the growth inhibition in vitro, assess inhibitory effect of the BGC to transplant subcutaneously in C57BL/6(Es-1^c) nude mice with human leukemia KBM5 cells growth.
Study tumor growth if it can be inhibited, slowed or cured. Twice a week or every other day, use a vernier caliper to measure the tumor size. The calculation formula of tumor volume: V=0.5a×b^2, a, b respectively represent the long and short radius of the tumor.
(§4) Data analysis: T test is used for the comparison between the two groups; one-way ANOVA is used between three or more groups. If there is a significant difference of f value, multiple comparisons should be used additional to ANOVA analysis. Two-way ANOVA is used to analyze potential synergies of combined drug group. All data analysis use SPSS 17.0; p<0.05 is considered with a significant difference.
According to the test results of the growth inhibition in vitro, select the minimum IC50 of the compound BP of the present invention, assess inhibitory effect of the BP to transplant subcutaneously in C57BL/6(Es-1^c) nude mice with human leukemia KBM5 and KBM5R cells growth.
According to the test results of the growth inhibition in vitro, select the minimum IC50 of the compound BDB of the present invention, assess inhibitory effect of the BDB to transplant subcutaneously in C57BL/6(Es-1^c) nude mice with human leukemia KBM5 and KBM5R cells growth.

[4] = test system: KBM5R (Bcr-Abl T315I mutation) cells; test: KBM5R tumor growth inhibition test in vitro (ATP method); type: cell-based; conditions: Homo sapiens, 72 hours incubation, read-out: IC50, cytotoxicity to KBM5R cells
Method: as §3, with “BP” for “BGC”, “KBM5 and KBM5R” for “KBM5”, “method” for “method,”
Using ATP method to determine the cell toxicity of compound BDB of the present invention. Adjust the KBM5 and KBM5R cells to a suitable cell density. 140 ul cell suspensions inoculated each hole on 96-well plate. The vaccination density of each species cell is: 2000-6000; then the cell culture plate is placed in the incubator for 24 hours so that it is attached on the wall holes. […]

[5] = test system: KBM5R (Bcr-Abl T315I mutation) cell subcutaneous implanted tumor; test: Leukemia subcutaneous xenograft growth inhibition test, KBM5R; type: in vivo, C57BL/6(Es-1^c) nude mice; conditions: dosed once a day for two weeks, tumor volume; Imatinib 160 mg/Kg
Text: Twice a week or every other day, use a vernier caliper to measure the tumor size. The calculation formula of tumor volume: V=0.5a×b^2, a, b respectively represent the long and short radius of the tumor.
as §4

Chain of c-Abl tyrosine kinase (P00519 whole entry): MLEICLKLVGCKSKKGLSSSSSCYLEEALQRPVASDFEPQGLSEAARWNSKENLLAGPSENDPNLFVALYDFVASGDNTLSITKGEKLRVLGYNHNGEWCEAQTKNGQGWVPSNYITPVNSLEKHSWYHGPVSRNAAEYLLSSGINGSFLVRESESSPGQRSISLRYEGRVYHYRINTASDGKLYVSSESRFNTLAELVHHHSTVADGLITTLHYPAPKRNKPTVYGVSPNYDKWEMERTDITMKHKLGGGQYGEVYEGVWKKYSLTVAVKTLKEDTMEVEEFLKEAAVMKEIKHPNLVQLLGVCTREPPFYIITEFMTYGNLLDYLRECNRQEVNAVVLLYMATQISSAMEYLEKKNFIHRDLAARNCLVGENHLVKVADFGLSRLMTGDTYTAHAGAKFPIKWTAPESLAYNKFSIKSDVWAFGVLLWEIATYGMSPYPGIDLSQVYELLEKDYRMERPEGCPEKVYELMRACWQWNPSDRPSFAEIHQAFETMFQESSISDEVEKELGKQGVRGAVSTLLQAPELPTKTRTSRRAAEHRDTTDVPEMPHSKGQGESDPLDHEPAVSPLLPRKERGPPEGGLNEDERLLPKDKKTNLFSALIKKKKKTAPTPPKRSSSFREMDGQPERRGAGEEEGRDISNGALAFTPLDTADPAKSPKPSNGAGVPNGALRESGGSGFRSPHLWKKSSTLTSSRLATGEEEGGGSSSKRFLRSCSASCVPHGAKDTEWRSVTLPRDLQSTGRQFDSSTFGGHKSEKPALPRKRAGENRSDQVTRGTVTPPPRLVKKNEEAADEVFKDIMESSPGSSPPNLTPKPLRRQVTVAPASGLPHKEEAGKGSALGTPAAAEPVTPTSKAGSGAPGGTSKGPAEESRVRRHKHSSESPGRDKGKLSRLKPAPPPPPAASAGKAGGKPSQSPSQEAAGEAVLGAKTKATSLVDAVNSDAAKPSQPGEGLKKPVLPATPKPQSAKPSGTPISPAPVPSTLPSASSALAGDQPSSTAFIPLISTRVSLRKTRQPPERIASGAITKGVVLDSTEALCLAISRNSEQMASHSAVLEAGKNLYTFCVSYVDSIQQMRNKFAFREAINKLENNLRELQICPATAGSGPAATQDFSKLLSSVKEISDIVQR

Row | SMILES | IC50 (c-Abl tyrosine kinase) [µM] | half-life [1] [h] | IC50 [2] [µM] | anti-tumor efficacy in KBM5 subcutaneous tumor model [3] | inhibitory effect compared with Imatinib in KBM5 subcutaneous tumor model [3] | IC50 [4] [µM] | anti-tumor efficacy in KBM5R subcutaneous tumor model [5]
1 | Cc1ccc(NC(=O)c2ccc(CN3CCN(CCC(=O)NCCCOCCOCCOCCCNC(=O)CCCC(=O)NCCCOCCOCCOCCCNC(=O)CCN4CCN(Cc5ccc(C(=O)Nc6ccc(C)c(Nc7nccc(-c8cccnc8)n7)c6)cc5)CC4)CC3)cc2)cc1Nc1nccc(-c2cccnc2)n1 [compound BGC] | 0.02 | 3.5 | 9 | has anti-tumor efficacy | same inhibitory effect with a dosage of 350 mg/kg as Imatinib of 160 mg/kg |  | 
2 | CO[C@H](C(=O)N1Cc2[nH]nc(NC(=O)c3ccc(CN4CCN(CCC(=O)NCCCOCCOCCOCCCNC(=O)CCCC(=O)NCCCOCCOCCOCCCNC(=O)CCN5CCN(Cc6ccc(C(=O)Nc7n[nH]c8c7CN(C(=O)[C@H](OC)c7ccccc7)C8)cc6)CC5)CC4)cc3)c2C1)c1ccccc1 [compound BDB] | 0.05 | 3.8 | 7 | has anti-tumor efficacy | same inhibitory effect with a dosage of 80 mg/kg as Imatinib of 160 mg/kg | 8.9 | has anti-tumor efficacy
3 | Cc1ccc(C(=O)Nc2ccc(CN3CCN(CCC(=O)NCCCOCCOCCOCCCNC(=O)CCCC(=O)NCCCOCCOCCOCCCNC(=O)CCN4CCN(Cc5ccc(NC(=O)c6ccc(C)c(C#Cc7cnc8cccnn78)c6)cc5C(F)(F)F)CC4)CC3)c(C(F)(F)F)c2)cc1C#Cc1cnc2cccnn12 [compound BP] | 0.01 | 3.5 | 2 | has anti-tumor efficacy | same inhibitory effect with a dosage of 80 mg/kg as Imatinib of 160 mg/kg | 5 | has anti-tumor efficacy
